# “Also recorded” adds a separate entry of the source.
# What was measured:
# NMDA-induced cell death = conditions: ref [29]; cited from earlier work
# [1] = system: paclitaxel-induced neuropathic pain; conditions: administered acutely; ref [27]; cited from earlier work
# primary cortical neurons = assay: Glutamate/glycine-induced cell death in primary cortical neurons; assay type: cell-based, Sprague-Dawley rat; conditions: MK-801 20 μM; n = 3–4; p < 0.01 for each comparison
# [2] = system: mechanical paw withdrawal thresholds, C57BL/6J mice; assay: PSNL-induced mechanical allodynia; assay type: in vivo
# [3] = system: cold response times, C57BL/6J mice; assay: PSNL-induced cold allodynia; assay type: in vivo
# p38 MAPK = conditions: rats, cited from earlier work; for p38 MAPK activation in microglia: 5 minutes post treatment, returned to basal levels after 20 minutes, ref [46]
# [4] = system: mechanical paw withdrawal thresholds, C57BL/6J mice; assay: Paclitaxel-induced mechanical allodynia; assay type: in vivo; conditions: paclitaxel 4 mg/kg i.p. on day 0, 2, 4, 6; starting on day 7 and ongoing on day 15; p < 0.0001
# [5] = system: cold response times, C57BL/6J mice; assay: Paclitaxel-induced cold allodynia; assay type: in vivo
# [6] = system: p53 phosphorylated at Ser15; assay: Western blot pSer15-p53 in lumbar spinal cord; assay type: in vivo, mouse; conditions: paclitaxel 4 mg/kg i.p. on day 0, 2, 4, 6, n = 5, p = 0.002
# ERK1/2 = assay: Western blot pERK1/2 in lumbar spinal cord; assay type: in vivo, mouse; conditions: n = 5
# [7] = target: His-nNOS1-299 and GST-NOS1AP400-506 (Homo sapiens, UniProt P29475); assay: AlphaScreen nNOS-NOS1AP binding disruption; conditions: 1X PBS, BSA (1mg/mL), Tween-20 (0.1%), 0–200 μM, n = 4–9
# [8] = system: NR1 and NR2B; astrocytes and microglia in the lumbar spinal cord; conditions: direct intrathecal injections; ref [2]; cited from earlier work
# His-nNOS_(1-299) = His-nNOS_(1-299) (UniProt P29476-1 1-299); assay: AlphaScreen or HTRF
# nNOS = conditions: ref [6], [29]; cited from earlier work
# Sequence of His-nNOS1-299 and GST-NOS1AP400-506 (P29475 1-299): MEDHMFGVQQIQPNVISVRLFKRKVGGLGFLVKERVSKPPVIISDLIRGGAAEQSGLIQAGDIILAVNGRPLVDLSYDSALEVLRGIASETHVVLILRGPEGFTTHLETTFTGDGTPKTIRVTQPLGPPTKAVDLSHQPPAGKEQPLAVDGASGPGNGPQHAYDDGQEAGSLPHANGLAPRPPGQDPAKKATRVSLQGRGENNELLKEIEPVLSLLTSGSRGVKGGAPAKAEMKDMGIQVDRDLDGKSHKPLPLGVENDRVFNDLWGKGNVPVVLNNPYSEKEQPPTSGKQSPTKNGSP
# Sequence of His-nNOS_(1-299) (P29476 1-299): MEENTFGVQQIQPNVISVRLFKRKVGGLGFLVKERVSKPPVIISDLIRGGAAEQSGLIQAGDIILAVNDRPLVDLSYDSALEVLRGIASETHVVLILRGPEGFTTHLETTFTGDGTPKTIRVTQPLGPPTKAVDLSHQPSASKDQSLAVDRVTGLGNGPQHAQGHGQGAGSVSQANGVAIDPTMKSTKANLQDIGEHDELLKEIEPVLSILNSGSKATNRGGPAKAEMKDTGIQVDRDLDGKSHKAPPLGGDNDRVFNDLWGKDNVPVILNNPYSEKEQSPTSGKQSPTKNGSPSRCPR
molecule,measurement,setting,value
Oc1c(Cl)cc(Cl)cc1CNc1ccc2n[nH]nc2c1 [IC87201],NMDAR-evoked nNOS-NOS1AP association/p38 MAPK-dependent cell death,NMDA-induced cell death,blocked
same,suppression of paclitaxel-induced neuropathic pain,[1],efficacious in suppressing paclitaxel-induced neuropathic pain
C[C@]12N[C@H](Cc3ccccc31)c1ccccc12 [MK-801],cell death vs all other groups exposed to glutamate/glycine,primary cortical neurons,Cell death was lower
same,"sustained mechanical efficacy, day 4–8, repeated dosing, PSNL","[2]; MK-801 5 nmol i.t. once daily, p < 0.001 for each comparison",similarly increased mechanical paw withdrawal thresholds relative to saline (i.t.) or TAT-GESVΔ1 (i.t.) with sustained efficacy
same,"cold sensitivity vs saline, repeated dosing, PSNL","[3]; MK-801 5 nmol i.t. once daily, 8 consecutive days, n = 5–10, p = 0.072",approached significance
"CN[C@H](CC(=O)O)C(=O)O [NMDA, N-methyl-D-aspartate]",spinal p38 MAPK activation,"p38 MAPK; administration directly to the spinal cord, ref [45]",induced p38 MAPK activation
CC(=O)O[C@H]1C(=O)[C@@]2(C)[C@H]([C@H](OC(=O)c3ccccc3)[C@]3(O)C[C@H](OC(=O)[C@H](O)[C@@H](NC(=O)c4ccccc4)c4ccccc4)C(C)=C1C3(C)C)[C@]1(OC(C)=O)CO[C@@H]1C[C@@H]2O [Paclitaxel],mechanical paw withdrawal thresholds after paclitaxel vs vehicle,[4],lowered mechanical paw withdrawal thresholds
same,cold response times after paclitaxel vs vehicle,"[5]; paclitaxel 4 mg/kg i.p. on day 0, 2, 4, 6, starting on day 7 and ongoing on day 15, p < 0.0001",increased cold response times
same,"pSer15-p53 levels, paclitaxel-treated vs vehicle-treated mice",[6],increased lumbar spinal cord levels of pSer15-p53
same,"pERK1/2 levels, paclitaxel-treated vs cremophor-vehicle treated mice","ERK1/2; paclitaxel 4 mg/kg i.p. on day 0, 2, 4, 6, lumbar spinal cord, saline i.t., p < 0.0001",elevated pERK1/2 levels
O=C(O)c1ccc(NCc2cc(Cl)cc(Cl)c2O)cc1O [ZL006],suppression of paclitaxel-induced neuropathic pain,[1],efficacious in suppressing paclitaxel-induced neuropathic pain
GRKKRRQRRR [TAT],disruption of nNOS-NOS1AP binding,[7],did not interfere with the binding between His-nNOS1-299 and GST-NOS1AP400-506
GRKKRRQRRRGESVYAGQW [TAT-cp4GESV],disruption of nNOS-NOS1AP binding,[7],Neither TAT-cp4GESV nor TAT-GESVΔ1 disrupted the interactions; also recorded: Neither TAT-GESVΔ1 nor TAT-cp4GESV disrupted the binding
same,NMDA-induced cell death,NMDA-induced cell death,did not disrupt NMDA activation-induced cell death
GRKKRRQRRRYAGQWGES [TAT-GESVΔ1],disruption of nNOS-NOS1AP binding,[7],Neither TAT-cp4GESV nor TAT-GESVΔ1 disrupted the interactions; also recorded: Neither TAT-GESVΔ1 nor TAT-cp4GESV disrupted the binding
same,cold response times vs saline (i.t.) in paclitaxel-treated mice,"[5]; 10 nmol i.t., n = 6, TAT-GESV p = 0.039, TAT-GESVΔ1 p = 1",did not differ from saline
same,"ipsilateral paw withdrawal thresholds vs saline, PSNL","[2]; 10 nmol i.t., acute, n = 6–10, TAT-GESV p < 0.05, TAT-GESVΔ1 p = 1",did not differ
same,"cold responsiveness, repeated dosing, PSNL","[3]; 10 nmol i.t. once daily, 8 consecutive days, n = 5–10, TAT-GESV vs saline p < 0.05, TAT-GESVΔ1 p > 0.25 for each comparison","did not reliably alter cold responsiveness relative to saline (i.t.), MK-801 (i.t.) or TAT-GESV (i.t.)"
same,"ipsilateral cold-response times vs saline, PSNL","[3]; 10 nmol i.t., acute, n = 6–10, TAT-GESV p < 0.01, TAT-GESVΔ1 p = 1",did not differ
same,"contralateral cold responsiveness, PSNL or sham","[3]; acute i.t., p = 0.39 (dose), p = 0.491 (drug), p = 0.882 (interaction)",neither TAT-GESV nor TAT-GESVΔ1 altered mechanical or cold responsiveness in the paw contralateral to PSNL or sham surgery
same,"pERK1/2 elevation vs saline (i.t.), paclitaxel-treated mice","ERK1/2; 5 nmol i.t., 20 min post injection, p > 0.4","neither TAT-GESV nor TAT-GESVΔ1 (5 nmol, i.t.) altered pERK1/2 elevation"
formalin,p38 MAPK activation in microglia,p38 MAPK,induced p38 MAPK activation in microglia 5 minutes post treatment
substance P,p38 MAPK activation in microglia,p38 MAPK,induced p38 MAPK activation in microglia 5 minutes post treatment
"CCL-1: chemokines C-C motif ligand 1 (protein, UniProt P22362 24-96, looked up) C-C motif chemokine 1: KSMQVPFSRCCFSFAEQEIPLRAILCYRNTSSICSNEGLIFKLKRGKEACALDTVGWVQRHRKMLRHCPSKRK","NR1 and NR2B phosphorylation, glial activation in lumbar spinal cord",[8],induced phosphorylation of NR1 and NR2B and activated astrocytes and microglia in the lumbar spinal cord
GRKKRRQRRRYAGQWGESV [L-TAT-GESV],IC50,His-nNOS_(1-299),8.47 µM
"nNOS1-99: nNOS fragment disrupting nNOS-NOS1AP interactions (protein, UniProt P29475 1-99, looked up, fragment) MEDHMFGVQQIQPNVISVRLFKRKVGGLGFLVKERVSKPPVIISDLIRGGAAEQSGLIQAGDIILAVNGRPLVDLSYDSALEVLRGIASETHVVLILRG",enzymatic activity of nNOS or production of NO,nNOS,does not alter the enzymatic activity of nNOS or the production of NO
